Each compound was assayed against T1, Syk kinase (Homo sapiens, UniProt P43405) (assay: Syk kinase inhibition, Caliper LabChip off-chip mobility-shift kinase assay). Details: Caliper LabChip assay; read-out: Syk Enzyme IC50.
T1 construct: purchased
Format: biochemical
Method in brief: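 Purified Syk pre-incubated 15 min with compound in 100 mM HEPES pH 7.5, 1 mM DTT, 10 mM MgCl2 or MnCl2, 0.002% Brij-35, then 1.5 μM fluorescein peptide and ATP at apparent KM added; 1–1.5 h at room temperature, 4% DMSO, EDTA stop. Microfluidic mobility-shift product/substrate conversion gave % inhibition; IC50 from 12-point series (10–0.00003 μM) by 4-parameter fit.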

Row | Structure (SMILES) | IC50 [µM]
1 | CC(C)(C)Nc1nc(Nc2cc(C(O)C(F)(F)F)ccn2)cc2ccn(CC(N)=O)c(=O)c12 (stereo not drawn) [compound 613] | 0.142
2 | CC(C)(C)Nc1nc(Nc2cc(C(N)=O)ccn2)cc2ccn(CCO)c(=O)c12 [compound 681] | 0.082
3 | C[C@@H](CO)Nc1nc(Nc2cnccn2)cc2ccn(CCC#N)c(=O)c12 [compound 1003] | 0.027
4 | CC(C)(C)Nc1nc(-c2cnc(N)nc2)cc2ccn(CCS(C)(=O)=O)c(=O)c12 [compound 737] | 0.02
5 | CC(C)(C)Nc1nc(Nc2cc(C(=O)N3CCCC(CO)C3)ccn2)cc2ccn(CCO)c(=O)c12 (stereo not drawn) [compound 688] | 0.866
6 | CC(C)(C)Nc1nc(Nc2cc(CCCCO)ncn2)cc2ccn(CCO)c(=O)c12 [compound 629] | 0.062
7 | CC1(Nc2nc(Nc3cc(C(C)(C)O)ccn3)cc3ccn(CC(N)=O)c(=O)c23)CC1 [compound 724] | 0.203
8 | CCn1ccc2cc(Nc3cnccn3)nc(Nc3ccc(C(=O)N4CCC(O)CC4)cc3)c2c1=O [compound 832] | 1.13
9 | CC(C)Nc1nc(Nc2cc(-c3cccnc3)ccn2)cc2cc[nH]c(=O)c12 [compound 1045] | 0.247
10 | CC(C)(C)Nc1nc(Nc2cnccn2)cc2c(Cl)cn(CCO)c(=O)c12 [compound 823] | 0.682
11 | CCn1ccc2cc(-c3cnc(N)nc3)nc(N[C@H]3CC[C@@H](CO)C3)c2c1=O [compound 913] | 0.005
12 | CCn1ccc2cc(Nc3cnccn3)nc(N)c2c1=O [compound 802] | 1.18
13 | COCCOc1cc(Nc2cc3ccn(CC(O)CO)c(=O)c3c(NC(C)(C)C)n2)ncn1 (stereo not drawn) [compound 885] | 0.078
14 | O=c1c2c(NCC(F)(F)F)nc(Nc3cnccn3)cc2ccn1CCO [compound 825] | 0.022
15 | CCn1ccc2cc(Nc3cc(C)ccn3)nc(N[C@@H]3CCC[C@H]3O)c2c1=O [compound 939] | 1.05
16 | C[C@@H](CO)Nc1nc(Nc2cnccn2)cc2ccn(CCF)c(=O)c12 [compound 1000] | 0.074
17 | CC(C)(C)Nc1nc(Nc2cc(C3CCN(CCO)CC3)ncn2)cc2ccn(CCO)c(=O)c12 [compound 640] | 0.116
18 | CC(C)(C)Nc1nc(Nc2cc(N3CCC(O)CC3)ccn2)cc2ccn(CCO)c(=O)c12 [compound 846] | 0.216
19 | CC(C)(C)Nc1nc(-c2cnc(N)nc2)cc2ccn(CCN3CCOCC3)c(=O)c12 [compound 1033] | 0.06
20 | COc1cc(Nc2cc3ccn(CCO)c(=O)c3c(NC(C)(C)C)n2)ncn1 [compound 735] | 0.05
21 | O=c1[nH]ccc2cc(NC3CCC(O)CC3)nc(Nc3ccc(N4CCOCC4)cc3)c12 (stereo not drawn) [compound 657] | 0.152
22 | CCn1ccc2cc(Nc3cc(C)ccn3)nc(NCCC(F)(F)F)c2c1=O [compound 780] | 0.862
23 | CC1(Nc2nc(Nc3cc(C4(O)COC4)ccn3)cc3ccn(CC(N)=O)c(=O)c23)CC1 [compound 617] | 0.064
24 | Cc1cn(CCO)c(=O)c2c(NC(C)(C)C)nc(-c3cnc(N)nc3)cc12 [compound 671] | 0.013

Same assay, conditions: read-out: Syk Enzyme IC50

Row | Structure (SMILES) | IC50 [µM]
25 | CCN1CCN(CCc2ccc(Nc3nc(-c4ccc(C)nc4)cc4c(F)c[nH]c(=O)c34)cc2)CC1 [compound 443] | 0.419
26 | COCC1(C(=O)N2CCC(c3ccc(Nc4nc(-c5cncc(OC)n5)cc5cc[nH]c(=O)c45)cc3C)CC2)CC1 [compound 16] | 0.099
27 | COc1cncc(-c2cc3cc[nH]c(=O)c3c(Nc3ccc(C4CCN(C(C)=O)CC4)c(C)c3)n2)n1 [compound 144] | 0.092
28 | COc1cncc(-c2cc3cc[nH]c(=O)c3c(Nc3ccc(N4CCC(OC)CC4)cc3)n2)n1 [compound 20] | 0.318
29 | COc1ncc(-c2cc3cc[nH]c(=O)c3c(Nc3ccc(C4CNC4)cc3)n2)cn1 [compound 130] | 0.057
30 | CCn1ccc2cc(Nc3cc(C)c(F)cn3)nc(N[C@H]3CC[C@@H](O)CC3)c2c1=O [compound 393] | 0.09
31 | Cc1ccnc(Nc2cc3cc[nH]c(=O)c3c(N[C@H]3CCOC3)n2)c1 [compound 302] | 0.083
32 | Cc1ccnc(Nc2cc3cc[nH]c(=O)c3c(NC3CCOCC3)n2)c1 [compound 293] | 0.145
33 | COCCCNc1nc(Nc2ccccn2)cc2cc[nH]c(=O)c12 [compound 190] | 0.286
34 | Cc1ccnc(Nc2cc3cc[nH]c(=O)c3c(N3CC[C@@H](O)C3)n2)c1 [compound 401] | 0.967
35 | Cn1ccc2cc(Nc3cnccn3)nc(Nc3ccc(C4CCN(C5COC5)CC4)cc3)c2c1=O [compound 346] | 0.387
36 | COc1nc(-c2cc3cc[nH]c(=O)c3c(Nc3ccc(C4CCNCC4)c(C)c3)n2)cnc1N [compound 168] | 0.004
37 | COc1cncc(-c2cc3cc[nH]c(=O)c3c(Nc3ccc(C4CN(C)C4)cc3)n2)n1 [compound 146] | 0.004
38 | COCCN1CCN(c2n[nH]c3cc(Nc4nc(-c5cncc(OC)n5)cc5cc[nH]c(=O)c45)ccc23)CC1 [compound 217] | 0.029
39 | CCn1ccc2cc(Nc3cc(C)ccn3)nc(NC[C@@H]3CC[C@@H](O)C3)c2c1=O [compound 412] | 0.224
40 | Cc1ncc(-c2cc3cc[nH]c(=O)c3c(Nc3ccc(C4CCN(CCCF)CC4)c(C)c3)n2)cn1 [compound 72] | 0.012
41 | COc1cncc(-c2cc3cc[nH]c(=O)c3c(Nc3ccc(C4CN(C(C)=O)C4)cc3)n2)n1 [compound 149] | 0.024
42 | COCCOCC(=O)N1CCC(c2ccc(Nc3nc(-c4cncc(OC)n4)cc4cc[nH]c(=O)c34)cc2)CC1 [compound 27] | 0.044
43 | COc1cncc(-c2cc3cc[nH]c(=O)c3c(Nc3ccc(C4CCN(C(=O)N5CCCC5)CC4)c(C)c3)n2)n1 [compound 113] | 2.32
44 | Nc1ncc(-c2cc3cc[nH]c(=O)c3c(NCCc3cccnc3)n2)cn1 [compound 188] | 0.093
45 | CCn1ccc2cc(Nc3cncnc3C)nc(NC(C)C)c2c1=O [compound 348] | 7.44
46 | CCN1CCC[C@@H]1CNC(=O)c1ccc(Nc2nc(-c3cncc(OC)n3)cc3cc[nH]c(=O)c23)cc1 [compound 83] | 0.014
47 | Cc1cc(Nc2nc(C(C)O)cc3cc[nH]c(=O)c23)ccc1C1CCNCC1 (stereo not drawn) [compound 236] | 0.012
48 | CCn1ccc2cc(Nc3cc(C)ccn3)nc(N[C@H]3CCCC[C@@H]3O)c2c1=O (racemic) [compound 406] | 0.476
49 | Cc1cc(Nc2nc(C(C)C)cc3cc[nH]c(=O)c23)ccc1N1CCO[C@H](C)C1 [compound 226] | 1.74
50 | CN(C)CCn1ccc2cc(Nc3cc(Cl)ccn3)nc(N[C@H]3CC[C@@H](O)CC3)c2c1=O [compound 388] | 0.042

Other lines, results leading:

Row | IC50 [µM] | Structure (SMILES)
51 | 0.069 | Cc1ccnc(Nc2cc3ccn(C)c(=O)c3c(Nc3ccc(C(=O)N4CCOCC4)cc3)n2)c1 [compound 500]
52 | 0.25 | CCCCNc1nc(Nc2cc(C)ccn2)cc2cc[nH]c(=O)c12 [compound 532]
53 | 0.701 | Cc1ccnc(Nc2cc3ccn(C)c(=O)c3c(Nc3cc(C)ccn3)n2)c1 [compound 569]
54 | 0.084 | Cc1ccnc(Nc2cc3ccn(C)c(=O)c3c(NCCCO)n2)c1 [compound 503]
55 | 0.143 | O=c1[nH]ccc2cc(Nc3ccccn3)nc(Nc3ccc(N4CCOCC4)cc3)c12 [compound 509]
56 | 0.031 | Cc1ccnc(Nc2cc3ccn(C)c(=O)c3c(NC(C)(C)CO)n2)c1 [compound 499]
57 | 0.062 | Cc1ccnc(Nc2cc3ccn(C)c(=O)c3c(Nc3ccc(C(N)=O)cc3)n2)c1 [compound 483]

From patent US20110053897A1 (IRM LLC, priority 2009, published 2011)
